# Source: article PMC9706920, “Aryloxypropanolamine targets amyloid aggregates and reverses Alzheimer-like phenotypes in Alzheimer mouse models” (Alzheimer's Research & Therapy, 2022)
# Columns and labels:
# Aβ(1–42) = molecular target: T1, Aβ(1–42) (Homo sapiens, UniProt P05067); experiment: ThT fluorescence Aβ(1–42) aggregation inhibition assay; assay type: biochemical; details: for Inhibition of Aβ(1–42) fibrillation (ThT fluorescence): compounds at 0.5, 5, 50, 500 μM co-incubated with monomeric Aβ(1–42) 25 μM, 37°C, 3 days, concentration of the printed value not stated
# T1 construct: Synthesized monomeric Aβ(1–42), […]; […]; IA; made in house; host or cells: chemical synthesis (Fmoc solid phase peptide synthesis)
# Procedure: (§1) ThT fluorescence was used to assess the in vitro inhibition of Aβ(1–42) and disaggregation of Aβ(1–42), Aβ(1–40), Aβ(pE3-42), recombinant tau K18, and tau repeats R1, R2, R3, R4 by YIAD compounds. In house synthetic Aβ(1–42) was dissolved in DMSO (1 mM, 100% DMSO) and diluted to 20-fold in deionized water to make 50 μM Aβ(1–42) stocks (5% DMSO). YIAD compounds were first dissolved in DMSO (100 mM, 100% DMSO) and serially diluted with deionized water to make YIAD stocks with concentrations of 1, 10, 100, and 1000 μM (10% DMSO). For the Aβ(1–42) inhibition assay, monomeric Aβ(1–42) stocks and YIAD stocks were co-incubated at 37°C for 3 days. For Aβ(1–42) disaggregation assay, monomeric Aβ(1–42) stocks were preincubated at 37°C for three days to form Aβ(1–42) aggregates, and subsequently, YIAD stocks were added for an additional 3 days. For Aβ(1-40) disaggregation assays, Aβ(1–40) (50 μM, 5% DMSO) was preincubated at 37°C for 3 days to induce aggregation, and co-incubated with YIAD001 and YIAD002 for an additional 3 days. For Aβ(pE3-42) disaggregation assays, in house synthetic Aβ(pE3-42) (50 μM, 5% DMSO) was preincubated at 37°C for 1 day and co-incubated with YIAD002 for an additional 3 days. For tau K18 disaggregation assay, recombinant tau K18 fragments (35 μM) were dissolved in PBS with 0.1 mg/mL of heparin and 100 μM of DTT, then pre-aggregated at 37°C for 3 days. Then, YIAD stocks were added to aggregated K18 fragments for an additional 3 days. For tau repeat disaggregation assays, tau repeats (R1, R2, R3, R4) (35 μM) were dissolved in PBS with 0.1 mg/mL of heparin and 100 μM of DTT, then pre-aggregated at 37°C for 1 day. Then, YIAD002 was added to aggregated repeats for an additional 3 days. Prior to fluorescence intensity measurement, ThT solution (5 μM) was prepared by dissolving ThT, purchased from Sigma-Aldrich (MO, USA) in 50 mM glycine buffer (pH 8.5). To quantify the effect of inhibition and disaggregation, 25 μL of all samples and 75 μL of ThT solution were loaded into a half-area 96-well black plate in triplicate.
# 5XFAD mice = experiment: 6E10 immunohistochemical staining of amyloid plaques in 5XFAD mice after oral administration; assay type: in vivo, mouse; details: 50 mg/kg/day via drinking water, 5 weeks, 4.5-month-old female 5XFAD mice, vs vehicle
# Procedure: To test the in vivo efficacy of YIAD001 and YIAD002, female 5XFAD mice (n = 25) and female wildtype mice (n = 7) were assessed at the age of 4.5 months. YIAD compounds were dissolved in DMSO and diluted in drinking water to a final concentration of 50 mg/kg/day (5% DMSO, 5% Tween) for oral administration. The three compounds, YIAD001, YIAD002, and YIAD003, were freely administered via drinking water to 4.5-month-old 5XFAD mice (n = 6 for each group) for 5 weeks. As a control, 5% DMSO, 5% Tween in drinking water was provided ad libitum to littermate 5XFAD mice (n = 7) and wildtype mice (n = 7) for 5 weeks.
# After the administration period, the mice were deeply anaesthetized with 4% avertin through intraperitoneal injection and transcardially perfused with 0.9% saline. Subsequently, the mice were sacrificed for brain excision. Each collected brain was divided through the mid-sagittal section; the hippocampal and cortical regions were dissected from one half and stored at −80°C for subsequent brain lysates, while the other half was immersed in 4% paraformaldehyde (pH 7.4) for 24 h and 30% sucrose for 48 h at 4°C and subsequently deep-froze at −80°C for immunohistochemistry.
# Coronal hippocampal sections of 5XFAD mice brains (35 μm) were cut with a Cryostat (Leica, CM1860) and mounted onto glass slides. Antigen retrieval was performed by submerging slides in 1% SDS and unspecific binding was blocked through incubation in 20% horse serum in PBS for 1 h at RT. Aβ deposits were visualized through immunolabeling by anti-6E10 antibody (1:200 in PBS with 5% horse serum, Biolegend 803003) and detection by fluorescent secondary antibody (1:200 in PBS, IgG Alexa 488). Brain sections were additionally stained with Hoechst 33342. Fluorescent images of the brain sections were taken on a Leica DM2500 fluorescence microscope. Amyloid plaques were quantified using Image-J software (NIH).
# Aβ(1–42) aggregates = molecular target: T2, Aβ(1–42) aggregates (Homo sapiens, UniProt P05067); experiment: ThT fluorescence Aβ(1–42) disaggregation assay; assay type: biochemical; details: for Decrease of fibrillar Aβ(1–42) aggregates (ThT fluorescence): Aβ(1–42) 25 μM pre-aggregated 37°C 3 days, compound added for additional 3 days, concentration of the printed value not stated; for EC50: pre-aggregated Aβ(1–42) 25 μM, 3 + 3 days, 37°C
# T2 construct: made in house; host or cells: chemical synthesis (Fmoc solid phase peptide synthesis)
# Procedure: as §1
# BBB-PAMPA = assay type: in vitro ADME; details: PAMPA, pH 7.4
# Procedure: Commercially available Double-Sink PAMPA (Pion® Double sink) assay was performed using a two compartment 96-well microtiter plate and protocols specified by the manufacturer. […] Stock solutions of controls and YIAD002 were dissolved in DMSO (10 mM) and subsequently diluted to 200-fold in pION buffer (pH 7.4) to 50 μM. The donor plate of the PAMPA sandwich was loaded with 50 μM solutions, and after wetting the artificial membrane with BBB lipid solution, the acceptor plate was loaded with acceptor sink buffer. Then, the acceptor plate was placed on the donor plate and incubated at 25°C for 4 h. Compound concentration in the reference, donor, and acceptor plates were measured on a UV plate.
# T1 sequence (P05067 672-713 limits assumed): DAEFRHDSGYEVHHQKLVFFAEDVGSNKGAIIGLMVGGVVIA
# T2 sequence (P05067 672-713 limits assumed): as above
structure (smiles),measurement,setting,value
COc1ccc(OCC(O)CN2CCCCC2)cc1.Cl (stereo not shown),melting point,,169.3 to 169.9 °C
Cl.OC(COc1ccc(Br)cc1)CN1CCOCC1 (stereo not shown),melting point,,172.1 to 172.7 °C
Cl.OC(COc1ccc(Br)cc1)CN1CCCCC1 (stereo not shown),melting point,,178.1 to 178.6 °C
Cl.OC(COc1ccc(Br)cc1)CN1CCCC1 (stereo not shown),melting point,,176.9 to 177.7 °C
CC(C)(C)c1ccc(OCC(O)CN2CCOCC2)cc1.Cl (stereo not shown),melting point,,197.9 to 198.3 °C
"COc1ccc(OCC(O)CN2CCOCC2)cc1.Cl (stereo not shown) [YIAD003, 4-(2-Hydroxy-3-(4-methoxyphenoxy)propyl)morpholin-4-ium chloride]",Activity in anti-Aβ screen,Aβ(1–42); inhibitory interaction with Aβ(1–42) aggregation,inactive
same,Number of 6E10-stained plaques,5XFAD mice,did not cause any change
same,Plaque area,5XFAD mice,slight tendency of an increase
same,melting point,,160.2 to 160.5 °C
"CC(C)(C)c1ccc(OCC(O)CN2CCCCC2)cc1.Cl (stereo not shown) [YIAD008, 1-(3-(4-(Tert-butyl)phenoxy)-2-hydroxypropyl)piperidin-1-ium chloride]",Inhibition of Aβ(1–42) fibrillation (ThT fluorescence),Aβ(1–42),70.69%
same,Decrease of fibrillar Aβ(1–42) aggregates (ThT fluorescence),Aβ(1–42) aggregates,59.89%
same,EC50,Aβ(1–42) aggregates,360 µM
same,melting point,,201.7 to 202.2 °C
"CC(C)(C)c1ccc(OCC(O)CN2CCCC2)cc1.Cl (stereo not shown) [YIAD010, 1-(3-(4-(Tert-butyl)phenoxy)-2-hydroxypropyl)pyrrolidin-1-ium chloride]",Inhibition of Aβ(1–42) fibrillation (ThT fluorescence),Aβ(1–42),75.96%
same,Decrease of fibrillar Aβ(1–42) aggregates (ThT fluorescence),Aβ(1–42) aggregates,83.56%
same,EC50,Aβ(1–42) aggregates,138 µM
same,melting point,,139.9 to 140.4 °C
"CC(=O)[C@H]1CC[C@H]2[C@@H]3CCC4=CC(=O)CC[C@]4(C)[C@H]3CC[C@]12C [progesterone, reference compound]","Papp at 4 h, 50 μM",BBB-PAMPA,50.9 ×10⁻⁶ cm/s
"CNC(=C[N+](=O)[O-])NCCSCc1ccc(CN(C)C)o1 [ranitidine, reference compound]",Effective permeability coefficient Pe,"BBB-PAMPA; 4 h, 50 μM",0 10^−6 cm/s
